In patent US20170049718A1, “DRUG FOR TREATMENT OF TINNITUS PATIENTS” (KYORIN PHARMACEUTICAL CO., LTD., priority 2014, published 2017):

Legend:
[1] = tested on: patients having tinnitus; assay: 24-week placebo controlled, randomized, double-blind comparative trial, TRSw score; type: in vivo, human; set-up: key to Change in TRSw score: LS mean change in TRSw score from week 0 to week 24; <0 = better; conditions: for Change in TRSw score, Neramexane-placebo / Change in TRSw score: 24 weeks; for Change in TRSw score: 50 mg/day
From the text: A therapeutic effect can be evaluated by physician inquiry using a questionnaire form such as TRSw (Tinnitus Rating Scale One-Week Version) (Acta Otolaryngol., 2013, 133(5), 491-498).
The efficacy of neramexane mesylate on patients with tinnitus associated with age-related hearing loss, tinnitus associated with auditory disorder in the range of the human voice at an auditory threshold value exceeding 25 dB, tinnitus that includes two or more different tinnitus sounds or tinnitus that includes a tinnitus sound that is not high-frequency alone, was evaluated in a 24-week, placebo controlled, randomized, double-blind comparative trial.
The film coated tablets containing 12.5 mg neramexane mesylate or placebo tablets were administered for 24 weeks to patients having tinnitus. The dosage was started from 12.5 mg/day, gradually increasing the dose to 50 mg/day over 4 weeks, and maintaining the same dose thereafter.
The therapeutic effect of neramexane mesylate for the patients was evaluated using the TRSw score. Statistical analysis was performed using a mixed-effect model repeated measure (MMRM) taking into consideration the covariance structure of error for the patient, with the change in TRSw score from before administration of neramexane mesylate tablets or placebo tablets (0 weeks) to each evaluation time point as the response variable, and with the drug-administered group, evaluation time point, interaction between drug-administered group and evaluation time point, 0-week TRSw score, gender and body weight as […]. The numerical values in the table represent least mean squares for the change in TRSw score at 24 weeks after administration. A change in score of less than 0 indicates a higher therapeutic effect.

[2] = molecular target: α9/α10 nicotinic acetylcholine receptors (Rattus norvegicus, UniProt P43144+Q9JLB5); conditions: Plazas, et al., Eur J Pharmacol., 2007; cited from earlier work
Chain of α9/α10 nicotinic acetylcholine receptors (P43144 26-479): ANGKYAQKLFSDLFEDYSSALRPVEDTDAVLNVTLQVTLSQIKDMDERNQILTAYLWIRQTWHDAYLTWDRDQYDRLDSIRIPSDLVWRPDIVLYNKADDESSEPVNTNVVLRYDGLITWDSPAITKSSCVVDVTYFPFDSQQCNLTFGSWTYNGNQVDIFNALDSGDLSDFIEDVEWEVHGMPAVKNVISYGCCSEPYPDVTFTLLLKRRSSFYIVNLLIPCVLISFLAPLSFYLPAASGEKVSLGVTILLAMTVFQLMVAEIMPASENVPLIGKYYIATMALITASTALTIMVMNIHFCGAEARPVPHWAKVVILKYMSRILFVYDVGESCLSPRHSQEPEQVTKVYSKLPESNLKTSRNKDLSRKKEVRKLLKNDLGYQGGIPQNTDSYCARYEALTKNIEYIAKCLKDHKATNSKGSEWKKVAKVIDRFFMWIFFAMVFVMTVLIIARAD
Chain of α9/α10 nicotinic acetylcholine receptors (Q9JLB5 25-447): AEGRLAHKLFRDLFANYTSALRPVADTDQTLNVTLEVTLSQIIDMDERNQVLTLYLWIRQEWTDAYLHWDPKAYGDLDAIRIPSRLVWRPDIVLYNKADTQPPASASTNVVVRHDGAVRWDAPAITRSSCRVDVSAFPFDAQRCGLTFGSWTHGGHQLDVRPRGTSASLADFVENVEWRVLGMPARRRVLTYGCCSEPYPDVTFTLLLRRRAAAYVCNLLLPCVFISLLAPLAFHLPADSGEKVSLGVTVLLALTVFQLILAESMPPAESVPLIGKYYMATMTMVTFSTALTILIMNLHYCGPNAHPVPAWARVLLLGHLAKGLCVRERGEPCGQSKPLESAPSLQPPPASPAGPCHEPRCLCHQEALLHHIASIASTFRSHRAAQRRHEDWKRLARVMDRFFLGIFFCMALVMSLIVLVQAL

[3] = molecular target: T1, 5-HT3 receptors (Homo sapiens, UniProt P46098); conditions: cited from earlier work
T1 sequence (P46098 24-478): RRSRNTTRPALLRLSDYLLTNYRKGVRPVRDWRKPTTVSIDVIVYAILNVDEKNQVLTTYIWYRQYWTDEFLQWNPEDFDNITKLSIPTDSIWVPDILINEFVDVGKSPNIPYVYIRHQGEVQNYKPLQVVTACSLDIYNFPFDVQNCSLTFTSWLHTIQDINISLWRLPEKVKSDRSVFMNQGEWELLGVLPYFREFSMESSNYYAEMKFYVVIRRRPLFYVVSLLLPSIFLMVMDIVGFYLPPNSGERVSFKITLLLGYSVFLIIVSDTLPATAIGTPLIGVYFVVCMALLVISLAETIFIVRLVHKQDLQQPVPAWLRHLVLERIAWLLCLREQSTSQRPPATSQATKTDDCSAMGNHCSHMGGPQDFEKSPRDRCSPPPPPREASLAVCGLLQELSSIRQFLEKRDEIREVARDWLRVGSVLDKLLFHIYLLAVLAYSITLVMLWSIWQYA

[4] = Tinnitus associated with age-related hearing loss at hearing threshold of 25 dB or more in both ears in 4000 Hz and 8000 Hz
[5] = Tinnitus associated with age-related hearing loss at hearing threshold of 25 dB or more in both ears in 8000 Hz
[6] = Tinnitus associated with age-related hearing loss, exhibiting auditory disorder (>25 dB) in the range of the human voice
[7] = Tinnitus associated with auditory disorder (>25 dB) in the range of the human voice
[8] = Tinnitus including tinnitus sound not of high-frequency alone
[9] = Tinnitus including two or more different tinnitus sounds, associated with age-related hearing loss, exhibiting auditory disorder (>25 dB) in the range of the human voice
[10] = Tinnitus including two or more different tinnitus sounds, associated with age-related hearing loss
[11] = Tinnitus including two or more different tinnitus sounds

CC1(C)CC(C)(C)CC(C)(N)C1 [Neramexane, 1-amino-1,3,3,5,5-pentamethylcyclohexane]
Change in TRSw score, Neramexane-placebo [1, 4]: −2.0 | Change in TRSw score [1, 4]: −2.5 | Change in TRSw score, Neramexane-placebo [1, 5]: −1.5 | Change in TRSw score [1, 5]: −2.2 | Change in TRSw score, Neramexane-placebo [1, 6]: −2.0 | Change in TRSw score [1, 6]: −3.6 | Change in TRSw score, Neramexane-placebo ([1]; Tinnitus associated with age-related hearing loss): −0.5 | Change in TRSw score ([1]; Tinnitus associated with age-related hearing loss, least mean squares): −2.5 | Change in TRSw score, Neramexane-placebo [1, 7]: −0.6 | Change in TRSw score [1, 7]: −1.7 | Change in TRSw score, Neramexane-placebo [1, 8]: −0.7 | Change in TRSw score [1, 8]: −2.0 | Change in TRSw score, Neramexane-placebo [1, 9]: −4.7 | Change in TRSw score [1, 9]: −5.0 | Change in TRSw score, Neramexane-placebo [1, 10]: −2.7 | Change in TRSw score [1, 10]: −4.1 | Change in TRSw score, Neramexane-placebo [1, 11]: −0.5 | Change in TRSw score [1, 11]: −2.2 | therapeutic effect compared to placebo ([1]; combined groups: age-related hearing loss with auditory disorder >25 dB, two or more sounds with age-related hearing loss, all three criteria): unexpectedly excellent therapeutic effect | therapeutic effect compared to placebo ([1]; single-criterion groups: age-related hearing loss, auditory disorder >25 dB in range of human voice, two or more tinnitus sounds, sound not high-frequency alone): superior therapeutic effect | inhibiting activity on α9/α10 nicotinic acetylcholine receptors [2]: exhibits inhibiting activity | inhibiting activity on 5-HT3 receptors [3]: exhibits inhibiting activity
